Assay results as given in patent US20230263822A1, “MODULATION OF FACTOR 11 EXPRESSION” (Ionis Pharmaceuticals, Inc., priority 2008, published 2023).

Key:
[1] = Tolerability in CD1 mice: kidney function, BUN, creatinine (Example 33); conditions: plasma, 50 mg/kg s.c. twice a week
Protocol: A control group of five mice was injected subcutaneously with PBS for 2 weeks. All experimental groups (i.e. ASO treated mice at 2, 4, 6 weeks) were compared to the control group (i.e. PBS, 2 weeks).
To evaluate the effect of ISIS oligonucleotides on kidney function, plasma concentrations of blood urea nitrogen (BUN) and creatinine were measured using an automated clinical chemistry analyzer (Hitachi Olympus AU400e, Melville, N.Y.).

[2] = test system: blood coagulation; test: PT and aPTT assay in cynomolgus monkeys (Example 45); format: in vivo; conditions: escalating dose regimen, platelet poor plasma
Protocol: (§1) Groups, each consisting of two male and three female monkeys, were injected subcutaneously with ISIS 416838, ISIS 416850, ISIS 416858, ISIS 416864, or ISIS 417002 in escalating doses. Antisense oligonucleotide was administered to the monkeys at 5 mg/kg three times per a week for week 1; 5 mg/kg twice per week for weeks 2 and 3; 10 mg/kg three times per week for week 4; 10 mg/kg twice per week for weeks 5 and 6; 25 mg/kg three times per week for week 7; and 25 mg/kg twice per week for weeks 8, 9, 10, 11, and 12. One control group, consisting of two male and three female monkeys, was injected subcutaneously with PBS according to the same dosing regimen. An additional experimental group, consisting of two male and three female monkeys, was injected subcutaneously with ISIS 416850 in a chronic, lower dose regimen. Antisense oligonucleotide was administered to the monkeys at 5 mg/kg three times per week for week 1; 5 mg/kg twice per week for week 2 and 3; 10 mg/kg three times per week for week 4; and 10 mg/kg twice per week for weeks 5 to 12. Body weights were measured weekly. Blood samples were collected 14 days and 5 days before the start of treatment and subsequently once per week for Factor 11 protein activity analysis in plasma, fibrinogen measurement, PT and aPTT measurements, bleeding times, and measurement of various hematologic factors. On day 85, the monkeys were euthanized by exsanguination while under deep anesthesia, and organs harvested for further analysis.
Blood samples were collected in tubes containing sodium citrate. PT and aPTT were determined in duplicate with an ACL 9000 coagulation instrument (Instrumentation Laboratory, Italy). The results were interpolated on a standard curve of serial dilutions citrated control monkey plasma tested to give a reported result in percent normal.
Prothrombin Time (PT) and Activated Partial Thromboplastin Time (aPTT) were measured using platelet poor plasma (PPP) from monkeys treated with ISIS oligonucleotides. PT and aPTT values are provided in Tables 116 and 117 and are reported as International Normalized Ratio (INR) values. INR values for PT and aPTT were determined by dividing the PT or aPTT value for each experimental group by the PT or aPTT for the PBS treated group. This ratio was then raised to the power of the International Sensitivity Index (ISI) of the tissue factor used. The ISIS oligonucleotide, ISIS 416850, given with the chronic dose regimen is distinguished from the other oligonucleotides with an asterisk (*).

[3] = Bleeding assay, Surgicutt Jr. device (Example 45); format: in vivo, cynomolgus monkeys; design: unit not given here; conditions: escalating dose regimen
Protocol: as §1
On different days during the treatment period, bleeding assay was performed using a Surgicutt Jr. device (ITC, New Jersey). Monkeys were placed in monkey chair with their arm placed in a steady support. The arm was lightly shaved and a sphygmomanometer was placed on the upper arm. The cuff of the sphygmomanometer was inflated to 40 mm Hg and this pressure was maintained throughout the procedure. The area on the upper arm to be incised was cleansed with an antiseptic swab and the Surgicutt Jr device was used to make an incision over the lateral aspect, volar surface of the forearm, parallel to and 5 cm below the antecubital crease. At the exact moment the incision was made, a stopwatch was started. Every 30 seconds, blood from the incision was blotted out using a blotting paper without directly touching the incision, so that formation of the platelet plug was not disturbed. Blood was blotted out every 30 seconds until blood no longer stained the paper. The stopwatch was then stopped and the bleeding time determined. The sphygmomanometer was removed from the animal's arm, the incision site was antiseptically swabbed and a wound closure strip applied. The ISIS oligonucleotide, ISIS 416850, given with the chronic dose regimen is distinguished from the other oligonucleotides with an asterisk (*).

Work on “ISIS 416838: MOE gapmer, nucleobases 1018 to 1042 of SEQ ID NO: 1 (Table 6) (antisense GCAACCGGGATGATGAGTGC; MOE gapmer, wing and gap sizes not given here)” yielded a BUN ([1]; 2 weeks) of 25 mg/dL, a Creatinine ([1]; 2 weeks) of 0.09 mg/dL and a BUN ([1]; 4 weeks) of 38 mg/dL. The Creatinine ([1]; 4 weeks) was 0.27 mg/dL, the BUN ([1]; 6 weeks) was 30 mg/dL and the Creatinine ([1]; 6 weeks) was 0.14 mg/dL. The “PT ratio (INR)” value ([2]; day 8) was 1.03, the “aPTT ratio (INR)” value ([2]; day 8) was 1.07 and the “PT ratio (INR)” value ([2]; day 15) was 1.03. For the same substance, the “aPTT ratio (INR)” value ([2]; day 15) was 1.05, the “PT ratio (INR)” value ([2]; day 22) was 1.07 and the “aPTT ratio (INR)” value ([2]; day 22) was 1.20. The “PT ratio (INR)” value ([2]; day 29) was 1.03, the “aPTT ratio (INR)” value ([2]; day 29) was 1.19 and the “PT ratio (INR)” value ([2]; day 36) was 1.05. The “aPTT ratio (INR)” value ([2]; day 36) was 1.20, the “PT ratio (INR)” value ([2]; day 43) was 1.03 and the “aPTT ratio (INR)” value ([2]; day 43) was 1.18. For the same substance, the “PT ratio (INR)” value ([2]; day 50) was 1.02, the “aPTT ratio (INR)” value ([2]; day 50) was 1.25 and the “PT ratio (INR)” value ([2]; day 57) was 1.04. For the same substance, the “aPTT ratio (INR)” value ([2]; day 57) was 1.21, the “PT ratio (INR)” value ([2]; day 64) was 1.04 and the “aPTT ratio (INR)” value ([2]; day 64) was 1.18. The “PT ratio (INR)” value ([2]; day 71) was 1.02, the “aPTT ratio (INR)” value ([2]; day 71) was 1.15 and the “PT ratio (INR)” value ([2]; day 78) was 1.04. For the same substance, the “aPTT ratio (INR)” value ([2]; day 78) was 1.19, the “PT ratio (INR)” value ([2]; day 85) was 1.05 and the “aPTT ratio (INR)” value ([2]; day 85) was 1.22. For the same substance, the “PT ratio (INR)” value ([2]; day −5) was 1.00, the “aPTT ratio (INR)” value ([2]; day −5) was 1.00 and the “PT ratio (INR)” value ([2]; day −14) was 1.00. For the same substance, the “aPTT ratio (INR)” value ([2]; day −14) was 1.00, the bleeding time ([3]; day 15) was 167 and the bleeding time ([3]; day 22) was 165. For the same substance, the bleeding time ([3]; day 36) was 166, the bleeding time ([3]; day 43) was 120 and the bleeding time ([3]; day 57) was 238. It also gave a bleeding time ([3]; day 64) of 131, a bleeding time ([3]; day 78) of 145 and a bleeding time ([3]; day 85) of 201. The bleeding time ([3]; day −5) was 150 and the bleeding time ([3]; day −14) was 200.

With “ISIS 416858: MOE gapmer, nucleobases 1275 to 1318 of SEQ ID NO: 1 (Table 8) (antisense ACGGCATTGGTGCACAGTTT; MOE gapmer, wing and gap sizes not given here)” the BUN ([1]; 2 weeks) was 21 mg/dL, the Creatinine ([1]; 2 weeks) was 0.13 mg/dL and the BUN ([1]; 4 weeks) was 29 mg/dL. For the same substance, the Creatinine ([1]; 4 weeks) was 0.23 mg/dL, the BUN ([1]; 6 weeks) was 19 mg/dL and the Creatinine ([1]; 6 weeks) was 0.10 mg/dL. For the same substance, the “PT ratio (INR)” value ([2]; day 8) was 1.05, the “aPTT ratio (INR)” value ([2]; day 8) was 1.03 and the “PT ratio (INR)” value ([2]; day 15) was 1.07. The “aPTT ratio (INR)” value ([2]; day 15) was 1.07, the “PT ratio (INR)” value ([2]; day 22) was 1.06 and the “aPTT ratio (INR)” value ([2]; day 22) was 1.18. For the same substance, the “PT ratio (INR)” value ([2]; day 29) was 1.08, the “aPTT ratio (INR)” value ([2]; day 29) was 1.20 and the “PT ratio (INR)” value ([2]; day 36) was 1.07. For the same substance, the “aPTT ratio (INR)” value ([2]; day 36) was 1.36, the “PT ratio (INR)” value ([2]; day 43) was 1.08 and the “aPTT ratio (INR)” value ([2]; day 43) was 1.28. For the same substance, the “PT ratio (INR)” value ([2]; day 50) was 1.03, the “aPTT ratio (INR)” value ([2]; day 50) was 1.55 and the “PT ratio (INR)” value ([2]; day 57) was 1.09. The “aPTT ratio (INR)” value ([2]; day 57) was 1.59, the “PT ratio (INR)” value ([2]; day 64) was 1.09 and the “aPTT ratio (INR)” value ([2]; day 64) was 1.60. For the same substance, the “PT ratio (INR)” value ([2]; day 71) was 1.07, the “aPTT ratio (INR)” value ([2]; day 71) was 1.70 and the “PT ratio (INR)” value ([2]; day 78) was 1.10. For the same substance, the “aPTT ratio (INR)” value ([2]; day 78) was 1.79, the “PT ratio (INR)” value ([2]; day 85) was 1.07 and the “aPTT ratio (INR)” value ([2]; day 85) was 1.76. The “PT ratio (INR)” value ([2]; day −5) was 1.00, the “aPTT ratio (INR)” value ([2]; day −5) was 1.00 and the “PT ratio (INR)” value ([2]; day −14) was 1.00. The “aPTT ratio (INR)” value ([2]; day −14) was 1.00, the bleeding time ([3]; day 15) was 146 and the bleeding time ([3]; day 22) was 100. It also gave a bleeding time ([3]; day 36) of 206, a bleeding time ([3]; day 43) of 111 and a bleeding time ([3]; day 57) of 138. For the same substance, the bleeding time ([3]; day 64) was 113, the bleeding time ([3]; day 78) was 186 and the bleeding time ([3]; day 85) was 191. It also gave a bleeding time ([3]; day −5) of 149 and a bleeding time ([3]; day −14) of 154.
